Experiment [1] has as its target T1, VEGF (Homo sapiens, UniProt P15692).
T1 sequence (P15692 1-191 isoform P15692-4): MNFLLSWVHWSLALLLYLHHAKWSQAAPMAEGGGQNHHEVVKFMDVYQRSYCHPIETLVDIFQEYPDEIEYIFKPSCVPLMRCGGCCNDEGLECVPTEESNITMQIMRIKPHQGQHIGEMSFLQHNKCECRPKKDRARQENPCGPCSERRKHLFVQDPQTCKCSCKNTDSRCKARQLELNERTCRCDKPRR
As to the kind of experiment: Release of VEGF from functionalized microspheres. To be noted: for bound VEGF released in 24 hours: microspheres incubated in a medium containing 10% FBS; for VEGF release relative to monomer microspheres (in words) / duration of sustained VEGF release: microspheres pre-incubated in 40 ng/ml VEGF solution (Fig. 3a).

The test system of experiment [2] is uterine artery endothelial cells (UAECs). To be noted: 10 ng/ml VEGF-165; compared with VEGF-free condition.
In experiment [3] the target is T1, VEGF. The format is binding. The note with it: Fig. 1b; varying concentrations of VEGF; microspheres containing lysine modified dimers.

In the case of (EFdAdYdLdIDFNWEYPASK)2KC [dimera], on VEGF [1], the “bound VEGF released in 24 hours” value is 48 ± 5%; the “VEGF release relative to monomer microspheres (in words)” value was “released significantly more VEGF and over a longer period of time relative to microspheres containing the monomer version”; the “duration of sustained VEGF release” value is recorded as “over 30 days”. In addition, in experiment [2], the “percent of responding UAECs (in words)” value is recorded as “reduced to the same level as the VEGF-free condition”.
For the substance (EFdAdYdLdIDFNWEYPAS)2KKKC [dimerb], the “VEGF binding efficiency over a range of VEGF concentrations (in words)” value on VEGF [3] was “consistently showed a higher VEGF binding efficiency than dimera”. Further, on VEGF [1], the “bound VEGF released in 24 hours” value turned out to be 72 ± 2%; the “VEGF release relative to monomer microspheres (in words)” value was “released significantly more VEGF and over a longer period of time relative to microspheres containing the monomer version”; the “duration of sustained VEGF release” value is “over 30 days”.

Values taken from article PMC3925890 (Advanced healthcare materials, 2012).
